This passage reports Activity, LED and inhibition results from ChEMBL document CHEMBL4680317, “In vitro and in vivo effects of inhibitors on actin and myosin” (Bioorg Med Chem, 2021).

Activity calls are given as the source filed them. No cut-off for these calls is given here.

The nature of data set [1]: Cardiotoxicity in medaka embryo post hatching 24 hrs assessed as reduction in heart beat at 10 uM measured after 1 hr. The data set is classed as toxicity. Conditions: oryzias latipes.
Data set [2] in a line: Cardiotoxicity in medaka embryo post hatching 24 hrs assessed as reduction in heart beat at 17.5 uM measured after 1 hr. The conditions noted are these: oryzias latipes. In kind it is toxicity.
For data set [3], the system named is MDA-MB-231. The experiment in a line: Antimigratory activity against human MDA-MB-231 cells assessed as minimum effective concentration by light microscopy. In kind it is functional.
Data set [4] deals with MDA-MB-231. The experiment in a line: Induction of cell morphological changes in human MDA-MB-231 cells assessed as membrane blebbing at 2 uM measured after 30 mins by inverted microscopy. In kind it is functional, cell-based.
The species named for data set [5] is Oryctolagus cuniculus. Kind of data set: Inhibition of rabbit muscle F-actin depolymerization at 50 to 100 uM incubated for 15 mins by spectrophotometric analysis. Conditions: Muscle tissue, dose 50-100 µM. In kind it is tissue-based.
The species entered for data set [6] is Oryctolagus cuniculus. Kind of data set: Inhibition of rabbit muscle G-actin polymerization assessed as polymerized G-actin level at 25 uM incubated for 15 mins by spectrophotometric analysis (reference value: 100 %). Conditions: Muscle tissue. On the set-up: scale not given: the % may be the effect or the level left. The data set is classed as tissue-based.

For data set [7], the system named is MDA-MB-231. The experiment in a line: Antimigratory activity against human MDA-MB-231 cells assessed as cell migration at 5 uM by light microscopy relative to control. The data set is classed as functional.
Data set [8] deals with MDA-MB-231. Kind of data set: Induction of cell morphological changes in human MDA-MB-231 cells assessed as membrane blebbing at 500 nM measured after 40 sec by inverted microscopy. The data set is classed as functional, cell-based.
Data set [9] has as its system MDA-MB-231. Kind of data set: Cytotoxicity against human MDA-MB-231 cells assessed as reduction in cell viability incubated for 4 hrs by neutral red uptake assay. Conditions: mda-mb-231, 4 h. In kind it is cell-based.
The test system of data set [10] is MDA-MB-231. Kind of data set: Antimigratory activity against human MDA-MB-231 cells assessed as cell migration at 10 uM by light microscopy relative to control. In kind it is functional.
A short description of data set [11]: Cardiotoxicity in medaka embryo post hatching 24 hrs assessed as reduction in heart beat at 25 uM measured after 1 hr. The conditions noted are these: oryzias latipes. In kind it is toxicity.
Data set [12] deals with MDA-MB-231. The experiment in a line: Induction of cell morphological changes in human MDA-MB-231 cells assessed as membrane blebbing by inverted microscopy. In kind it is functional, cell-based.
For data set [13], the system named is MDA-MB-231. Kind of data set: Antimigratory activity against human MDA-MB-231 cells assessed as cell migration at 2.5 uM by light microscopy relative to control. In kind it is functional.
The species entered for data set [14] is Oryctolagus cuniculus. Kind of data set: Inhibition of rabbit muscle F-actin depolymerization incubated for 15 mins by spectrophotometric analysis. In kind it is tissue-based. The conditions noted are these: Muscle tissue, dose 25-100 µM.
Data set [15] can be described thus: Cardiotoxicity in medaka embryo post hatching 24 hrs assessed as reduction in heart beat at 1.25 uM measured after 1 hr. The conditions noted are these: oryzias latipes. In kind it is toxicity.
Data set [16] deals with MDA-MB-231. Kind of data set: Antimigratory activity against human MDA-MB-231 cells assessed as cell migration by light microscopy. The data set is classed as functional, cell-based.
The target in data set [17] is Myosin light chain kinase 2, skeletal/cardiac muscle (Oryctolagus cuniculus) (UniProt P07313). The experiment in a line: Inhibition of rabbit skeletal muscle myosin-2 ATPase incubated for 20 mins followed by ATP addition and measured after 20 mins. In kind it is tissue-based. The conditions noted are these: Skeletal muscle tissue, time 40.0 min.
Sequence of Myosin light chain kinase 2, skeletal/cardiac muscle (Oryctolagus cuniculus) (P07313 whole entry): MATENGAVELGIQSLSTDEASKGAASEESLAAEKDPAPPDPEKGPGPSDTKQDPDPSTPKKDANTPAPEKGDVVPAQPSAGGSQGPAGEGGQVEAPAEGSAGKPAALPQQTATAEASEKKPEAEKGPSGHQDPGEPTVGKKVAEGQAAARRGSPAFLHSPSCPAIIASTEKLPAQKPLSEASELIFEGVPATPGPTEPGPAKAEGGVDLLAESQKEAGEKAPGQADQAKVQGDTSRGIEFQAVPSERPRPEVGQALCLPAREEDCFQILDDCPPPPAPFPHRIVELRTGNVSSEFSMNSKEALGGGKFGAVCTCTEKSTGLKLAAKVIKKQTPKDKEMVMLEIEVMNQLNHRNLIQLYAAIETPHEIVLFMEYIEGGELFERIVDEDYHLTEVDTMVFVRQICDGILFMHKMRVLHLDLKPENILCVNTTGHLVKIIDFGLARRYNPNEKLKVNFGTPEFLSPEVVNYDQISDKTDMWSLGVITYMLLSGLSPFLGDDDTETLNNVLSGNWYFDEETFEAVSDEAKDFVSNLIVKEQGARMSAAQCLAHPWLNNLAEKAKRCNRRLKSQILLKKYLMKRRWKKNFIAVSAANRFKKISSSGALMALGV

In the case of `Cc1ccc2c(c1)C(=O)[C@]1(O)CCN(c3ccccc3)C1=N2`, the Activity result in data set [1] was “Toxic”; in data set [2] it was “Non-Toxic”; in the data set listed under Oryctolagus cuniculus [6], 78.7%; in the data set with MDA-MB-231 [7], 136.6%. Also, the LED in the data set on MDA-MB-231 [3] is 5 µM. Besides, in the data set on MDA-MB-231 [4], the result was inactive. Besides, the inhibition entry in the data set listed under Oryctolagus cuniculus [5] was “Active”.
For the compound `C=C1[C@@H](C)[C@H]2[C@H](Cc3ccccc3)NC(=O)[C@]23OC(=O)/C=C/[C@H](O)CCC[C@@H](C)C/C=C/[C@H]3[C@@H]1O` [CYTOCHALASIN B], the Activity result was “Non-Toxic” in [1], “Toxic” in the data set on MDA-MB-231 [9], 8.2% in the data set on MDA-MB-231 [10] and 43.5% in the data set filed under Oryctolagus cuniculus [6]. Further, the result in the data set on MDA-MB-231 [8] was Active. Further, in the data set filed under Oryctolagus cuniculus [5], the inhibition result was “Active”.
On to `Oc1cc(O)c2c(c1)O[C@H](c1cc(O)c(O)c(O)c1)[C@H](O)C2` [EPIGALLOCATECHIN], for which the figures for the Activity entry (in [11]; in the data set listed under Oryctolagus cuniculus [6]) were “Non-Toxic” and 118%, respectively. Further, the result with MDA-MB-231 [12] and with MDA-MB-231 [13] was inactive.
Consider `O=c1c(O)c(-c2ccc(O)cc2)oc2cc(O)cc(O)c12` [KAEMPFEROL], for which the Activity result in data set [11] is “Non-Toxic”; in the data set listed under Oryctolagus cuniculus [6], 71.8%; in the data set on MDA-MB-231 [13] it was 70%. Besides, the LED with MDA-MB-231 [3] worked out at 2.5 µM. In addition, in the data set with MDA-MB-231 [12], the outcome was inactive. In addition, the inhibition entry in the data set filed under Oryctolagus cuniculus [14] is “Dose-dependent effect”.
Turning to `Oc1c(Br)cc(Br)cc1-c1[nH]c(Br)c(Br)c1Br` [PENTABROMOPSEUDILIN], the Activity result in [15] was “Toxic”; in the data set on MDA-MB-231 [9] it was “Toxic”; in the data set listed under Oryctolagus cuniculus [6], 104%; in the data set with MDA-MB-231 [13] it was 67%. The inhibition entry in the data set with MDA-MB-231 [16] is “Dose-dependent effect”. Moreover, the LED in the data set on MDA-MB-231 [3] is 1 µM. The outcome in the data set on MDA-MB-231 [12] was inactive.
Regarding `Oc1c(Cl)cc(Cl)cc1-c1[nH]c(Cl)c(Cl)c1Cl` [PENTACHLOROPSEUDILIN], the Activity result in data set [15] was “Toxic”; with MDA-MB-231 [9], “Toxic”; in the data set listed under Oryctolagus cuniculus [6], 38.4%; with MDA-MB-231 [13], 62.6%. Further, the inhibition entry (in the data set with MDA-MB-231 [16]; in data set [17]) was “Dose-dependent effect” each time. Also, the LED in the data set with MDA-MB-231 [3] turned out to be 1 µM.
On to `O=c1c(O)c(-c2ccc(O)c(O)c2)oc2cc(O)cc(O)c12` [QUERCETIN], for which the Activity result was “Non-Toxic” in data set [11] and 74.5% in the data set listed under Oryctolagus cuniculus [6]. For the same compound, the outcome in the data set with MDA-MB-231 [12] and in the data set on MDA-MB-231 [13] was inactive. The inhibition result in the data set filed under Oryctolagus cuniculus [14] is “Dose-dependent effect”.
